According to patent publication US20060166906A1, “6-O-substituted erythromycin derivatives having improved gastrointestinal tolerance” (priority 2001, published 2006):

System: conscious ferrets
Experiment: Gastrointestinal tolerability study: nausea and emesis in conscious ferrets
Format: in vivo, ferret
Conditions: observed 90 minutes; for % Emesis: oral gavage 30 mg/kg in 2 mL ethanol and 4 mL water, vomiting ferrets / animals dosed; for Nausea Score: oral gavage 30 mg/kg, mean number of nausea behaviors (up to five) per animal
Experimental: Example 3 and three reference compounds were investigated for their ability to produce nausea and emesis in conscious ferrets using the method as described in Drugs, 53(2), 206-234 (1997) and Cancer Treat. Rep., 66(1), 187-189 (1982). Each compound was administered to 6 ferrets by oral gavage at 30 mg/kg in 2 mL of ethanol and 4 mL of water. […] Nausea was preceded by up to five of the following behaviors in the ferret: licking, down, flop, backing, and gag. […] The mean nausea score for a compound is the total number of nausea behaviors divided by the number of animals given the compound. Percent emesis is the total number of vomiting ferrets divided by the number of animals administered the compound.

Structure (SMILES): CC[C@H]1OC(=O)[C@H](C)[C@@H](O[C@H]2C[C@@](C)(OC)[C@@H](O)[C@H](C)O2)[C@H](C)[C@@H](O[C@@H]2O[C@H](C)C[C@H](N(C)C)[C@H]2O)[C@](C)(OC)C[C@@H](C)C(=O)[C@H](C)[C@@H](O)[C@]1(C)O [Clarithromycin]
- % Emesis: 83%
- Nausea Score: 1.4

Structure (SMILES): CC[C@H]1OC(=O)[C@H](C)C(=O)[C@H](C)[C@@H](O[C@@H]2O[C@H](C)C[C@H](N(C)C)[C@H]2O)[C@](C)(OC)C[C@@H](C)C(=O)[C@H](C)[C@H]2N(CCCCn3cnc(-c4cccnc4)c3)C(=O)O[C@]12C [Telithromycin]
- % Emesis: 50%
- Nausea Score: 1.8

Structure (SMILES): CC[C@H]1OC(=O)[C@H](C)[C@@H](O[C@H]2C[C@@](C)(OC)[C@@H](O)[C@H](C)O2)[C@H](C)[C@@H](O[C@@H]2O[C@H](C)C[C@H](N(C)C)[C@H]2O)[C@](C)(O)C[C@@H](C)C(=O)[C@H](C)[C@@H](O)[C@]1(C)O [Erythromycin]
- % Emesis: 67%
- Nausea Score: 1.2
